From ChEMBL document CHEMBL1133230, “1-Aminomethylisoquinoline-4-carboxylates as novel dipeptidylpeptidase IV inhibitors” (Bioorg Med Chem Lett, 2000)

These molecules were tested against Dipeptidyl peptidase 4 (Homo sapiens, UniProt P27487) (assay: In vitro inhibition of Dipeptidylpeptidase IV from Caco-2 (human colon carcinoma) cells.).
Assay type: cell-based

Chain of Dipeptidyl peptidase 4 (P27487 whole entry): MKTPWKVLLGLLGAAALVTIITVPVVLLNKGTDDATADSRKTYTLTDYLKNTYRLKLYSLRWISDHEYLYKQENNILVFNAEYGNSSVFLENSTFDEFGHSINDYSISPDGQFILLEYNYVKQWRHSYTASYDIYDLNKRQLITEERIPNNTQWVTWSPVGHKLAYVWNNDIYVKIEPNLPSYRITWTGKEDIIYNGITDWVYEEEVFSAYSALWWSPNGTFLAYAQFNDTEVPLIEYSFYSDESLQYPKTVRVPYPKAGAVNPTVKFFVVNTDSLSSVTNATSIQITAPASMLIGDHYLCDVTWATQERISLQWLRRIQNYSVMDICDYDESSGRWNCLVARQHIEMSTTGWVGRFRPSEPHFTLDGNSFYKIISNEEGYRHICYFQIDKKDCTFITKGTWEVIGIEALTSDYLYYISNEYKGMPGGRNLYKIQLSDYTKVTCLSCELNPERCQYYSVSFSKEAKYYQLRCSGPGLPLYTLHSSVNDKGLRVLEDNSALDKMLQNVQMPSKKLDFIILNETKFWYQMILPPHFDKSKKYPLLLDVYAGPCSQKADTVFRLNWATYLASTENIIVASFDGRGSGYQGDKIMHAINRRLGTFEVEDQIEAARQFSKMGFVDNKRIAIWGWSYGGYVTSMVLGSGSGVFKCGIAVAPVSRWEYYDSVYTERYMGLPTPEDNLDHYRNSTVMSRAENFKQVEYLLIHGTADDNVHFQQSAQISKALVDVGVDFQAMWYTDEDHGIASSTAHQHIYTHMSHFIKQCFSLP

Compound	IC50
CCOC(=O)CCc1cnc(CN)c2cc(OC)c(OC)cc12	52.6 µM
CCOC(=O)c1cnc(CCN)c2cc(OC)c(OC)cc12	746 µM
CCOC(=O)/C=C/c1cnc(CN)c2cc(OC)c(OC)cc12	18 µM
CCOC(=O)c1cnc(CN)c2c(OC)c(OC)c(OC)cc12	1.1 µM
CCOC(=O)c1cnc(CN)c2cc(OC)c(OC)c(OC)c12	18 µM
CCCNC(=O)c1cnc(CN)c2cc(OC)c(OC)cc12	51.4 µM
COc1cc2c(C=O)cnc(CN)c2cc1OC	277 µM
CCCOc1cc2c(CN)ncc(C(=O)OCC)c2cc1OC	8.4 µM
CCOC(=O)c1cnc(CN(C)C)c2cc(OC)c(OC)cc12	948 µM
CCOC(=O)Cc1cnc(CN)c2cc(OC)c(OC)cc12	17 µM
CCOC(=O)c1cnc(CN)c2ccc(OC)cc12	207 µM
CCOC(=O)c1cnc(CN)c2cc(OC)c(OC)cc12	3.4 µM
CCOC(=O)c1cnc(CN)c2cc(O)c(OC)cc12	14 µM
CCOC(=O)c1cnc(CN)c2cc(OC)c(OCC)cc12	4.7 µM
CCOC(=O)c1cnc(CN)c2c(OC)ccc(OC)c12	2.4 µM
CCOC(=O)Nc1cnc(CN)c2cc(OC)c(OC)cc12	2.3 µM
CCOC(=O)c1cnc(CNC)c2cc(OC)c(OC)cc12	731 µM
CCOC(=O)c1cnc(CN)c2cc(OCC)c(OC)cc12	6.7 µM
COc1cc2c(CO)cnc(CN)c2cc1OC	31.8 µM
COc1cc2c(C(N)=O)cnc(CN)c2cc1OC	170 µM
COc1cc2c(C(=O)O)cnc(CN)c2cc1OC	103 µM
